Results reported in patent US11279687B2, “Compounds and compositions for the inhibition of NAMPT” (Valo Health, Inc., priority 2010, dated 2022).

Columns and labels:
A2780 cells = test: In-vitro cell proliferation assay (SRB), A2780 cells; assay type: cell-based; conditions: Homo sapiens, A2780, 72 h, A2780 cells, 72 hours, SRB; read-out: A2780 IC50;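 also: viable cell number read as SRB absorbance, background from media-only wells subtracted, IC50 interpolated from percent inhibition at two bracketing compound concentrations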
NAMPT = NAMPT (Homo sapiens (Human), UniProt P43490); test: NAMPT biochemical inhibition assay (NMN quantified by mass spectrometry); conditions: NAMPT biochemical inhibition; read-out: Biochem IC50
Sequence of NAMPT (P43490 whole entry): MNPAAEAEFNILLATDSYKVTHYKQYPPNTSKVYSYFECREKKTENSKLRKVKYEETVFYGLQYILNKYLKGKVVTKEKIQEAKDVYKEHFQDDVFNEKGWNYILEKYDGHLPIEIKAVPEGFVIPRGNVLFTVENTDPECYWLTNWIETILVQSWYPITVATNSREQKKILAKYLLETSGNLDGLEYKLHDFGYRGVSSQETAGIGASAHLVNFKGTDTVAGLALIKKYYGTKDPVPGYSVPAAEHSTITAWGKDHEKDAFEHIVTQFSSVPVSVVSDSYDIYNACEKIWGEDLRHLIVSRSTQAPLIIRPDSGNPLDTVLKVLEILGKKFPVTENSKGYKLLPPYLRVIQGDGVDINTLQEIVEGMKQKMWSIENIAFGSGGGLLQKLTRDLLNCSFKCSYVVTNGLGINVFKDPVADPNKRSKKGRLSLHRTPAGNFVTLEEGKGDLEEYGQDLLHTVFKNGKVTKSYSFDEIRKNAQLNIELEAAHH

Row | Structure (SMILES) | IC50 (A2780 cells) [nM] | IC50 (NAMPT) [nM]
1 | CCc1ccccc1S(=O)(=O)c1ccc(NC(=O)NCc2cccnc2)cc1 [3-{4-[(2-ethylbenzene)sulfonyl]phenyl}-1-(pyridin-3-ylmethyl)urea] | 169 | 2
2 | COc1cccc(S(=O)(=O)c2ccc(NC(=O)NCc3cccnc3)cc2)c1F [3-{4-[(2-fluoro-3-methoxybenzene)sulfonyl]phenyl}-1-(pyridin-3-ylmethyl)urea] | 387 | 1
3 | COc1ccc(S(=O)(=O)c2ccc(NC(=O)NCc3cccnc3)cc2)c(F)c1 [3-{4-[(2-fluoro-4-methoxybenzene)sulfonyl]phenyl}-1-(pyridin-3-ylmethyl)urea] | 311 | 3
4 | Cc1ccc(S(=O)(=O)c2ccc(NC(=O)NCc3cccnc3)cc2)c(F)c1 [3-{4-[(2-fluoro-4-methylbenzene)sulfonyl]phenyl}-1-(pyridin-3-ylmethyl)urea] | 517 | 2
5 | Cc1ccc(NS(=O)(=O)c2ccc(NC(=O)NCc3cccnc3)cc2)c(F)c1 [3-{4-[(2-fluoro-4-methylphenyl)sulfamoyl]phenyl}-1-(pyridin-3-ylmethyl)urea] | 157 | 2
6 | Cc1ccc(F)c(S(=O)(=O)c2ccc(NC(=O)NCc3cccnc3)cc2)c1 [3-{4-[(2-fluoro-5-methylbenzene)sulfonyl]phenyl}-1-(pyridin-3-ylmethyl)urea] | > 1000 | 12
7 | O=C(NCc1cccnc1)Nc1ccc(S(=O)(=O)c2ccccc2F)cc1 [3-{4-[(2-fluorobenzene)sulfonyl]phenyl}-1-(pyridin-3-ylmethyl)urea] | 493 | 3
8 | COc1ncccc1NS(=O)(=O)c1ccc(NC(=O)NCc2cccnc2)cc1 [3-{4-[(2-methoxypyridin-3-yl)sulfamoyl]phenyl}-1-(pyridin-3-ylmethyl)urea] | 114 | 7
9 | Cc1ccccc1S(=O)(=O)c1ccc(NC(=O)NCc2cccnc2)cc1 [3-{4-[(2-methylbenzene)sulfonyl]phenyl}-1-(pyridin-3-ylmethyl)urea] | 450 | 2
10 | COC[C@@H]1CCCN1S(=O)(=O)c1ccc(NC(=O)NCc2cccnc2)cc1 [3-{4-[(2S)-2-(methoxymethyl)pyrrolidine-1-sulfonyl]phenyl}-1-(pyridin-3-ylmethyl)urea] | 60 | 2
11 | O=C(NCc1cccnc1)Nc1ccc(S(=O)(=O)c2ccc(Cl)c(Cl)c2)cc1 [3-{4-[(3,4-dichlorobenzene)sulfonyl]phenyl}-1-(pyridin-3-ylmethyl)urea] | 100 to 1000 | 2.9
12 | O=C(NCc1cccnc1)Nc1ccc(S(=O)(=O)Nc2ccc(Cl)c(Cl)c2)cc1 [3-{4-[(3,4-dichlorophenyl)sulfamoyl]phenyl]-1-(pyridin-3-ylmethyl)urea] | 122 | 6
13 | O=C(NCc1cccnc1)Nc1ccc(S(=O)(=O)c2ccc(F)c(F)c2)cc1 [3-{4-[(3,4-difluorobenzene)sulfonyl]phenyl}-1-(pyridin-3-ylmethyl)urea] | 214 | 3
14 | COc1ccc(NS(=O)(=O)c2ccc(NC(=O)NCc3cccnc3)cc2)cc1OC [3-{4-[(3,4-dimethoxyphenyl)sulfamoyl]phenyl]-1-(pyridin-3-ylmethyl)urea] | 116 | 5
15 | Cc1ccc(NS(=O)(=O)c2ccc(NC(=O)NCc3cccnc3)cc2)cc1C [3-{4-[(3,4-dimethylphenyl)sulfamoyl]phenyl}-1-(pyridin-3-ylmethyl)urea] | 93 | 3
16 | O=C(NCc1cccnc1)Nc1ccc(S(=O)(=O)c2cc(Cl)cc(Cl)c2)cc1 [3-{4-[(3,5-dichlorobenzene)sulfonyl]phenyl}-1-(pyridin-3-ylmethyl)urea] | 100 to 1000 | 1.9
17 | O=C(NCc1cccnc1)Nc1ccc(S(=O)(=O)c2cc(F)cc(F)c2)cc1 [3-{4-[(3,5-difluorobenzene)sulfonyl]phenyl}-1-(pyridin-3-ylmethyl)urea] | 284 | 3
18 | COc1cc(NS(=O)(=O)c2ccc(NC(=O)NCc3cccnc3)cc2)cc(OC)c1 [3-{4-[(3,5-dimethoxyphenyl)sulfamoyl]phenyl}-1-(pyridin-3-ylmethyl)urea] | 96 | 5
19 | CC(=O)c1cccc(S(=O)(=O)c2ccc(NC(=O)NCc3cccnc3)cc2)c1 [3-{4-[(3-acetylbenzene)sulfonyl]phenyl}-1-(pyridin-3-ylmethyl)urea] | 100 to 1000 | 2.1
20 | CS(=O)(=O)N(c1cccc(N)c1)S(=O)(=O)c1ccc(NC(=O)NCc2cccnc2)cc1 [3-{4-[(3-aminophenyl)(methanesulfonyl)sulfamoyl]phenyl}-1-(pyridin-3-ylmethyl)urea] | 110 | 3
21 | O=C(NCc1cccnc1)Nc1ccc(S(=O)(=O)c2cccc(Br)c2)cc1 [3-{4-[(3-bromobenzene)sulfonyl]phenyl}-1-(pyridin-3-ylmethyl)urea] | 322 | 2
22 | COc1ccc(S(=O)(=O)c2ccc(NC(=O)NCc3cccnc3)cc2)cc1Cl [3-{4-[(3-chloro-4-methoxybenzene)sulfonyl]phenyl}-1-(pyridin-3-ylmethyl)urea] | 92.9 | 1.3
23 | Cc1ccc(S(=O)(=O)c2ccc(NC(=O)NCc3cccnc3)cc2)cc1Cl [3-{4-[(3-chloro-4-methylbenzene)sulfonyl]phenyl}-1-(pyridin-3-ylmethyl)urea] | 100 to 1000 | 0.9
24 | CCCOc1ccc(S(=O)(=O)c2ccc(NC(=O)NCc3cccnc3)cc2)cc1Cl [3-{4-[(3-chloro-4-propoxybenzene)sulfonyl]phenyl}-1-(pyridin-3-ylmethyl)urea] | 100 to 1000 | 4.6
25 | Cc1cc(Cl)cc(S(=O)(=O)c2ccc(NC(=O)NCc3cccnc3)cc2)c1 [3-{4-[(3-chloro-5-methylbenzene)sulfonyl]phenyl}-1-(pyridin-3-ylmethyl)urea] | 67.1 | 1.8
26 | O=C(NCc1cccnc1)Nc1ccc(S(=O)(=O)c2cccc(Cl)c2)cc1 [3-{4-[(3-chlorobenzene)sulfonyl]phenyl}-1-(pyridin-3-ylmethyl)urea] | 518 | 3
27 | CCS(=O)(=O)Nc1cccc(S(=O)(=O)c2ccc(NC(=O)NCc3cccnc3)cc2)c1 [3-{4-[(3-ethanesulfonamidobenzene)sulfonyl]phenyl}-1-(pyridin-3-ylmethyl)urea] | 69.5 | 1.1
28 | CCOc1cccc(S(=O)(=O)c2ccc(NC(=O)NCc3cccnc3)cc2)c1 [3-{4-[(3-ethoxybenzene)sulfonyl]phenyl}-1-(pyridin-3-ylmethyl)urea] | 83.7 | 1.7
29 | CCc1cccc(S(=O)(=O)c2ccc(NC(=O)NCc3cccnc3)cc2)c1 [3-{4-[(3-ethylbenzene)sulfonyl]phenyl}-1-(pyridin-3-ylmethyl)urea] | 70.8 | 2

The next molecules have a lower IC50 (A2780 cells) than those just listed; values first:

Row | IC50 (A2780 cells) [nM] | IC50 (NAMPT) [nM] | Structure (SMILES)
30 | 32 | 3 | CCOc1ccccc1NS(=O)(=O)c1ccc(NC(=O)NCc2cccnc2)cc1 [3-{4-[(2-ethoxyphenyl)sulfamoyl]phenyl}-1-(pyridin-3-ylmethyl)urea]
31 | 10 | 2 | COc1cccc(F)c1S(=O)(=O)c1ccc(NC(=O)NCc2cccnc2)cc1 [3-{4-[(2-fluoro-6-methoxybenzene)sulfonyl]phenyl}-1-(pyridin-3-ylmethyl)urea]
32 | 39 | 0.8 | O=C(NCc1cccnc1)Nc1ccc(S(=O)(=O)Nc2ccccc2I)cc1 [3-{4-[(2-iodophenyl)sulfamoyl]phenyl}-1-(pyridin-3-ylmethyl)urea]
33 | 7 | 4 | COc1ccc(C)cc1S(=O)(=O)c1ccc(NC(=O)NCc2cccnc2)cc1 [3-{4-[(2-methoxy-5-methylbenzene)sulfonyl]phenyl}-1-(pyridin-3-ylmethyl)urea]
34 | 2 | 2 | COc1ccc(C)cc1NS(=O)(=O)c1ccc(NC(=O)NCc2cccnc2)cc1 [3-{4-[(2-methoxy-5-methylphenyl)sulfamoyl]phenyl}-1-(pyridin-3-ylmethyl)urea]
35 | 10 | 2 | COc1ccccc1S(=O)(=O)c1ccc(NC(=O)NCc2cccnc2)cc1 [3-{4-[(2-methoxybenzene)sulfonyl]phenyl}-1-(pyridin-3-ylmethyl)urea]
36 | 39 | 5 | CC(C)(NS(=O)(=O)c1ccc(NC(=O)NCc2cccnc2)cc1)c1ccccc1 [3-{4-[(2-phenylpropan-2-yl)sulfamoyl]phenyl}-1-(pyridin-3-ylmethyl)urea]
37 | 18 | 4 | CC[C@H]1CCCCN1S(=O)(=O)c1ccc(NC(=O)NCc2cccnc2)cc1 [3-{4-[(2S)-2-ethylpiperidine-1-sulfonyl]phenyl}-1-(pyridin-3-ylmethyl)urea]
38 | 17 | 5 | COc1ccc(S(=O)(=O)c2ccc(NC(=O)NCc3cccnc3)cc2)cc1OC [3-{4-[(3,4-dimethoxybenzene)sulfonyl]phenyl}-1-(pyridin-3-ylmethyl)urea]
39 | 40 | 1 | Cc1cc(C)cc(S(=O)(=O)c2ccc(NC(=O)NCc3cccnc3)cc2)c1 [3-{4-[(3,5-dimethylbenzene)sulfonyl]phenyl}-1-(pyridin-3-ylmethyl)urea]
40 | 41 | 1 | Cc1cc(C)cc(NS(=O)(=O)c2ccc(NC(=O)NCc3cccnc3)cc2)c1 [3-{4-[(3,5-dimethylphenyl)sulfamoyl]phenyl}-1-(pyridin-3-ylmethyl)urea]
41 | 26 | 1.4 | Cc1ccc(NS(=O)(=O)c2ccc(NC(=O)NCc3cccnc3)cc2)cc1Cl [3-{4-[(3-chloro-4-methylphenyl)sulfamoyl]phenyl}-1-(pyridin-3-ylmethyl)urea]
42 | 27.2 | 1.3 | COc1cc(Cl)cc(S(=O)(=O)c2ccc(NC(=O)NCc3cccnc3)cc2)c1 [3-{4-[(3-chloro-5-methoxybenzene)sulfonyl]phenyl}-1-(pyridin-3-ylmethyl)urea]
43 | 28.3 | 3.9 | CCOc1cc(S(=O)(=O)c2ccc(NC(=O)NCc3cccnc3)cc2)ccc1F [3-{4-[(3-ethoxy-4-fluorobenzene)sulfonyl]phenyl}-1-(pyridin-3-ylmethyl)urea]
